Values of other authors as cited in patent US8674081B2, “Methods and compositions to elicit multivalent immune responses against dominant and subdominant epitopes, expressed on cancer cells and tumor stroma” (Mankind Corporation, priority 2005, dated 2014).

What was measured:
human PBMC = settings: stated as 'has been shown'
[1] = stated as 'has been shown'
MHC class I = settings: stated as 'has been shown'

Sequence	CTL / anti-tumor immune response, in vitro immunization of human PBMC (human PBMC)	CTL / anti-tumor immune response, in vivo immunization in mice [1]	MHC class I binding relative to native epitope (MHC class I)
GLPSIPVHPI (listed as Homo sapiens) [PSMA288-297]	significant CTL responses	significant CTL responses	–
SLLQHLIGL [PRAME425-433]	strong anti-tumor immune responses	strong anti-tumor immune responses	–
GLPSIPVHPV [PSMA288-297 I297V]	significant CTL responses	significant CTL responses	elevated
